Literature values in patent US12138351B2, “Pharmaceutical composition for oral administration comprising aminopyrimidine derivative or pharmaceutically acceptable salt, hydrate, or solvate thereof” (Janssen Biotech, Inc., priority 2020, dated 2024).
Where two headings read alike, the source gives them in different places.

Columns and labels:
[1] = system: T790M single active mutation (EGFRm) and double mutation; details: known irreversible EGFR TKI
[2] = target: wild-type EGFR (Homo sapiens, UniProt P00533); details: known irreversible EGFR TKI
[3] = compared to the compound in the form of free-base

Sequence of wild-type EGFR (P00533 25-1210): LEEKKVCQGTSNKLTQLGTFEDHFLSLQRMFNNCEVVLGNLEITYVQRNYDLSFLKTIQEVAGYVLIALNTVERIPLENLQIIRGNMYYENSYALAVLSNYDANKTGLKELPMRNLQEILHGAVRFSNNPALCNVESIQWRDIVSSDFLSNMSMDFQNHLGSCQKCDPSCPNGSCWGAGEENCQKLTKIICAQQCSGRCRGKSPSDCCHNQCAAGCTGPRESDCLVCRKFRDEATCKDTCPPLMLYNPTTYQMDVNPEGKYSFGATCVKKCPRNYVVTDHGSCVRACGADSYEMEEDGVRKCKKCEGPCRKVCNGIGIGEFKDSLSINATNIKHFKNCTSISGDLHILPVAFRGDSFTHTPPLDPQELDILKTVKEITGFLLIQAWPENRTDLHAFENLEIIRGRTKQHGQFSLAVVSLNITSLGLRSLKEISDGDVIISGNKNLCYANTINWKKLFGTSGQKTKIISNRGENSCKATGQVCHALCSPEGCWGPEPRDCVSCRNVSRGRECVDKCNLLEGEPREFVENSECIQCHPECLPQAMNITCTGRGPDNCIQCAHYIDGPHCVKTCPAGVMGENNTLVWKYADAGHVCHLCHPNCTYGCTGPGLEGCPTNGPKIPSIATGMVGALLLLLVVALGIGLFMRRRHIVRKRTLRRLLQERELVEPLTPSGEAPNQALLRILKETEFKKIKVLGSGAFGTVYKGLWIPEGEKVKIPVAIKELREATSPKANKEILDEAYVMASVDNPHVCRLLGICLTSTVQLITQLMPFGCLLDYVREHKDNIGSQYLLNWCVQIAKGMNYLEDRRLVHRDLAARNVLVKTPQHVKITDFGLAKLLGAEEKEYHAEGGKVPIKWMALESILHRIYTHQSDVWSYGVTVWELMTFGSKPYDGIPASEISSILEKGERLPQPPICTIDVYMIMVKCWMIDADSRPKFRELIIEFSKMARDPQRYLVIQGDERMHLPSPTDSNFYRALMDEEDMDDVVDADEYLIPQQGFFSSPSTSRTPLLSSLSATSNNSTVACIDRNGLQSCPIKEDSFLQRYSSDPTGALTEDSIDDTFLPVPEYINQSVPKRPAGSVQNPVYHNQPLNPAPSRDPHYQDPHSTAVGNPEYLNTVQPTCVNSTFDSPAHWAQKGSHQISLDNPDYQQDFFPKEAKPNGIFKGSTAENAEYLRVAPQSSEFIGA

Row | Compound | inhibitory activity on T790M single active mutation (EGFRm) and double mutation [1] | effect on wild-type EGFR [2] | bioavailability (co-administration with, e.g., an antacid, as well as administration alone) | bioavailability (compared to the compound in the form of free-base) | stability [3]
1 | C=CC(=O)Nc1cc(Nc2nccc(-n3cc(CN(C)C)c(-c4ccccc4)n3)n2)c(OC)cc1N1CCOCC1 [Lazertinib, N-(5-(4-(4-((dimethylamino)methyl)-3-phenyl-1H-pyrazol-1-yl)pirimidine-2-ylamino)-4-methoxy-2-morpholinophenyl)acrylamide] | strong inhibitory activity | less effect |  |  | 
2 | N-(5-(4-(4-((dimethylamino)methyl)-3-phenyl-1H-pyrazol-1-yl)pirimidine-2-ylamino)-4-methoxy-2-morpholinophenyl)acrylamide mesylate [Lazertinib mesylate] |  |  | excellent bioavailability | excellent | excellent
